Measurements as given in PubChem BioAssay AID1259407 (Chemical Carcinogenesis Research Information System (CCRIS), 2018).
The source made the active and inactive calls. The rule behind the calls is not given here.

Tested on: CCRIS mutagenicity, Ames/micronucleus/aberration tests
Assay: CCRIS mutagenicity studies

Measured: mutagenic call

Cc1cc(-c2ccc(N/N=C3/C(=O)c4c(N)cc(S(=O)(=O)O)cc4C=C3S(=O)(=O)O)c(C)c2)ccc1N/N=C1/C(=O)c2c(N)cc(S(=O)(=O)O)cc2C=C1S(=O)(=O)O
active: Test System: AMES SALMONELLA TYPHIMURIUM, Strain/Indicator: TA98, Metabolic Activation: HAMSTER, LIVER, S-9, Method: PREINCUBATION (PRIVAL METHOD) active; positive | Test System: AMES SALMONELLA TYPHIMURIUM, Strain/Indicator: TA100, Metabolic Activation: HAMSTER, LIVER, S-9, Method: PREINCUBATION (PRIVAL METHOD) active; positive
inactive: Test System: AMES SALMONELLA TYPHIMURIUM, Strain/Indicator: TA1538, Metabolic Activation: NONE, Method: STANDARD PLATE inactive; negative | Test System: Ames Salmonella typhimurium, Strain/Indicator: TA98, Metabolic Activation: Rat, Liver, S-9, Sodium phenobarbitone, Method: Preincubation inactive; negative, test conducted under both aerobic and anaerobic conditions. | Test System: Ames Salmonella typhimurium, Strain/Indicator: TA1538, Metabolic Activation: Rat, Liver, S-9, Sodium phenobarbitone, Method: Preincubation inactive; negative, test conducted under both aerobic and anaerobic conditions. | Test System: Mouse lymphoma, Strain/Indicator: L5178Y (tk+/tk-), Metabolic Activation: None, Method: Suspension/plate inactive; negative | Test System: Mouse lymphoma, Strain/Indicator: L5178Y (tk+/tk-), Metabolic Activation: Rat, Liver, S-9, Aroclor 1254, Method: Suspension/plate inactive; negative
